Results: patent US12428406B2 (PMV Pharmaceuticals, Inc., priority 2019, dated 2025)

target: T1, p53 Y220C (Homo sapiens, UniProt P04637, Y220C); assay: In vitro DNA binding activity assay (HTRF / TR-FRET): stabilization of p53 Y220C and increase of its DNA binding activity; type: biochemical; settings: recombinant His-tagged p53 Y220C DNA binding domain (aa 94-312), biotin-labeled consensus DNA, incubated at 27° C. or 29° C. for 60 min
T1 construct: The recombinant protein was a truncation mutant containing only amino acids 94-312 of p53; made in house; host or cells: E. coli
T1 sequence (P04637 94-312, change not shown): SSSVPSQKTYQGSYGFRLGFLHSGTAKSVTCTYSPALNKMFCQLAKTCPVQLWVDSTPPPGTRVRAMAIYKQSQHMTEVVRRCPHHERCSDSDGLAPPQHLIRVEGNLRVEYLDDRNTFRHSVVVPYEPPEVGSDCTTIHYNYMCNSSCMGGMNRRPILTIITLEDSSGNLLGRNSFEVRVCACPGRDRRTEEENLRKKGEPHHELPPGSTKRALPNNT
Outline: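 Stabilization of the mutant is inferred from increased binding of His-tagged p53 Y220C to a biotin-labeled consensus DNA, detected by HTRF with europium-streptavidin and APC-anti-His antibody. The concentration giving a 50% rise over compound-free binding is reported as SC150.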

SC150 (concentration of the compound required to increase the DNA binding activity by 50%)	SMILES
+ (+ = 0 μM ≤ SC150 < 0.05 μM)	CNC(=O)c1ccc(NCC#Cc2cc3c(N[C@H]4CC[C@H](N(C)CCOC)CC4)cccc3n2CC(F)(F)F)c(OC)c1 [Compound 151A, 3-methoxy-N-methyl-4-{[3-(4-{[(1R,4R)-4-[(2-methoxyethyl) (methyl)amino]cyclo-hexyl]amino}-1-(2,2,2-trifluoroethyl)-1H-indol-2-yl)prop-2-yn-1-yl]amino}benzamide]
+ (+ = 0 μM ≤ SC150 < 0.05 μM)	CCNC(=O)c1ccc(NCC#Cc2cc3c(N[C@H]4CC[C@H](N(C)CCOC)CC4)cccc3n2CC(F)(F)F)c(OC)c1 [Compound 153A, N-ethyl-3-methoxy-4-((3-(4-((4-((2-methoxyethyl)(methyl)amino)cyclohexyl)amino)-1-(2,2,2-trifluoroethyl)-1H-indol-2-yl)prop-2-yn-1-yl)amino)benzamide]
+ (+ = 0 μM ≤ SC150 < 0.05 μM)	COCCN(C)[C@H]1CC[C@H](Nc2cccc3c2cc(C#CCNc2ccc(S(N)(=O)=O)cc2OCC#N)n3CC(F)(F)F)CC1 [Compound 164A, 3-(cyanomethoxy)-4-{[3-(4-{[(1R,4R)-4-[(2-methoxyethyl) (methyl)amino]cyclo-hexyl]amino}-1-(2,2,2-trifluoroethyl)-1H-indol-2-yl)prop-2-yn-1-yl]amino}benzene-1-sulfonamide]
+ (+ = 0 μM ≤ SC150 < 0.05 μM)	COCCN(C)[C@H]1CC[C@@H](Nc2cccc3c2cc(C#CCNc2ccc(S(N)(=O)=O)cc2OCC#N)n3CC(F)(F)F)CC1 [Compound 165A, 3-(cyanomethoxy)-4-{[3-(4-{[(1S,4S)-4-[(2-methoxyethyl)(methyl)amino]cyclohexyl]amino}-1-(2,2,2-trifluoroethyl)-1H-indol-2-yl)prop-2-yn-1-yl]amino}benzene-1-sulfonamide]
+ (+ = 0 μM ≤ SC150 < 0.05 μM)	COc1cc(C(N)=O)ccc1NCC#Cc1cc2c(N[C@H]3CC[C@@H](N4CCOCC4)CC3)cccc2n1CC(F)(F)F [Compound 171A, 3-methoxy-4-{[3-(4-{[(1S,4S)-4-(morpholin-4-yl)cyclohexyl]amino}-1-(2,2,2-trifluoroethyl)-1H-indol-2-yl)prop-2-yn-1-yl]amino}benzamide]
+ (+ = 0 μM ≤ SC150 < 0.05 μM)	CNC(=O)c1ccc(NCC#Cc2cc3c(N[C@H]4CC[C@H](N5CCOCC5)CC4)cccc3n2CC(F)(F)F)c(OC)c1 [Compound 172A, 3-methoxy-N-methyl-4-{[3-(4-{[(1R,4R)-4-(morpholin-4-yl)cyclohexyl]amino}-1-(2,2,2-trifluoroethyl)-1H-indol-2-yl)prop-2-yn-1-yl]amino}benzamide]
+ (+ = 0 μM ≤ SC150 < 0.05 μM)	COc1cc(S(C)(=O)=O)ccc1NCC#Cc1cc2c(N[C@H]3CC[C@H](N4CCOCC4)CC3)cccc2n1CC#N [Compound 174A, 2-(2-{3-[(4-methane-sulfonyl-2-methoxy-phenyl)amino]prop-1-yn-1-yl}-4-{[(1R,4R)-4-(morpholin-4-yl)cyclo-hexyl]amino}-1H-indol-1-yl)acetonitrile]
+ (+ = 0 μM ≤ SC150 < 0.05 μM)	CNC(=O)c1ccc(NCC#Cc2cc3c(N[C@H]4CC[C@H](N5CCOCC5)CC4)cccc3n2CC#N)c(OC)c1 [Compound 177A, 4-({3-[1-(cyanomethyl)-4-{[(1R,4R)-4-(morpholin-4-yl)cyclohexyl]amino}-1H-indol-2-yl]prop-2-yn-1-yl}amino)-3-methoxy-N-methyl-benzamide]
+ (+ = 0 μM ≤ SC150 < 0.05 μM)	CCCn1c(C#CCNc2ccc(S(C)(=O)=O)cc2OC)cc2c(N[C@H]3CC[C@H](N4CCOCC4)CC3)cccc21 [Compound 178A, 2-{3-[(4-methane-sulfonyl-2-methoxy-phenyl)amino]prop-1-yn-1-yl}-1-propyl-N-[(1R,4R)-4-(morpholin-4-yl)cyclohexyl]-1H-indol-4-amine]

More lines, now with the values behind:

SMILES	SC150 (concentration of the compound required to increase the DNA binding activity by 50%)
COCCN(C)[C@H]1CC[C@H](Nc2cccc3c2cc(C#CCNc2ccc(S(C)(=O)=O)cc2OCC#N)n3CC(F)(F)F)CC1 [Compound 149A]	+ (+ = 0 μM ≤ SC150 < 0.05 μM)
COCCN(C)[C@H]1CC[C@@H](Nc2cccc3c2cc(C#CCNc2ccc(S(C)(=O)=O)cc2OCC#N)n3CC(F)(F)F)CC1 [Compound 150A]	+ (+ = 0 μM ≤ SC150 < 0.05 μM)
CNC(=O)c1ccc(NCC#Cc2cc3c(N[C@H]4CC[C@@H](N(C)CCOC)CC4)cccc3n2CC(F)(F)F)c(OC)c1 [Compound 152A, 3-methoxy-N-methyl-4-{[3-(4-{[(1S,4S)-4-[(2-methoxyethyl) (methyl)amino]cyclohexyl]amino}-1-(2,2,2-trifluoroethyl)-1H-indol-2-yl)prop-2-yn-1-yl]amino}benzamide]	+ (+ = 0 μM ≤ SC150 < 0.05 μM)
COCCN(C)[C@H]1CC[C@H](Nc2cccc3c2cc(C#CCNc2ccc(S(C)(=O)=O)cc2OCF)n3CC(F)(F)F)CC1 [Compound 155A, (1R,4R)—N^1-(2-(3-((2-(fluoromethoxy)-4-(methylsulfonyl)phenyl)amino)prop-1-yn-1-yl)-1-(2,2,2-trifluoroethyl)-1H-indol-4-yl)-N^4-(2-methoxyethyl)-N^4-methylcyclohexane-1,4-diamine]	+ (+ = 0 μM ≤ SC150 < 0.05 μM)
COCCN(C)[C@H]1CC[C@H](Nc2cccc3c2cc(C#CCNc2ccc(S(N)(=O)=O)cc2OC)n3CC(F)(F)F)CC1 [Compound 160A, 3-methoxy-4-{[3-(4-{[(1R,4R)-4-[(2-methoxyethyl)(methyl)amino]cyclohexyl]amino}-1-(2,2,2-trifluoroethyl)-1H-indol-2-yl)prop-2-yn-1-yl]amino}benzene-1-sulfonamide]	+ (+ = 0 μM ≤ SC150 < 0.05 μM)
CCN(CC)[C@H]1CC[C@H](Nc2cccc3c2cc(C#CCNc2ccc(S(C)(=O)=O)cc2OC)n3CC(F)(F)F)CC1 [Compound 162A, (1R,4R)-N^1,N^1-diethyl-N4-(2-{3-[(4-methanesulfonyl-2-methoxyphenyl)amino]prop-1-yn-1-yl}-1-(2,2,2-trifluoroethyl)-1H-indol-4-yl)cyclohexane-1,4-diamine]	+ (+ = 0 μM ≤ SC150 < 0.05 μM)
COCCN(CCOC)[C@H]1CC[C@H](Nc2cccc3c2cc(C#CCNc2ccc(S(N)(=O)=O)cc2OCF)n3CC(F)(F)F)CC1 [Compound 166A, 3-(fluoromethoxy)-4-{[3-(4-{[(1R,4R)-4-[bis(2-methoxyethyl)amino]cyclohexyl]amino}-1-(2,2,2-trifluoro-ethyl)-1H-indol-2-yl)prop-2-yn-1-yl]amino} benzene-1-sulfonamide]	+ (+ = 0 μM ≤ SC150 < 0.05 μM)
COCCN(C)[C@H]1CC[C@H](Nc2cccc3c2cc(C#CCNc2ccc(S(N)(=O)=O)cc2OCF)n3CC(F)(F)F)CC1 [Compound 168A, 3-(fluoromethoxy)-4-{[3-(4-{[(1R,4R)-4-[(2-methoxyethyl)(methyl)amino]cyclohexyl]amino}-1-(2,2,2-trifluoro-ethyl)-1H-indol-2-yl)prop-2-yn-1-yl]amino}benzene-1-sulfonamide]	+ (+ = 0 μM ≤ SC150 < 0.05 μM)
COc1cc(C(N)=O)ccc1NCC#Cc1cc2c(N[C@H]3CC[C@H](N4CCOCC4)CC3)cccc2n1CC(F)(F)F [Compound 170A, 3-methoxy-4-{[3-(4-{[(1R,4R)-4-(morpholin-4-yl)cyclohexyl]amino}-1-(2,2,2-trifluoroethyl)-1H-indol-2-yl)prop-2-yn-1-yl]amino}benzamide]	+ (+ = 0 μM ≤ SC150 < 0.05 μM)
CNC(=O)c1ccc(NCC#Cc2cc3c(N[C@H]4CC[C@@H](N5CCOCC5)CC4)cccc3n2CC(F)(F)F)c(OC)c1 [Compound 173A, 3-methoxy-N-methyl-4-{[3-(4-{[(1S,4S)-4-(morpholin-4-yl)cyclohexyl]amino}-1-(2,2,2-trifluoro-ethyl)-1H-indol-2-yl)prop-2-yn-1-yl]amino}benzamide]	+ (+ = 0 μM ≤ SC150 < 0.05 μM)
CNC(=O)c1ccc(NCC#Cc2cc3c(N[C@H]4CC[C@H](N5CCOCC5)CC4)cccc3n2CCF)c(OC)c1 [Compound 175A, 4-({3-[1-(2-fluoro-ethyl)-4-{[(1R,4R)-4-(morpholin-4-yl)cyclohexyl]amino}-1H-indol-2-yl]prop-2-yn-1-yl}amino)-3-methoxy-N-methylbenzamide]	++ (++ = 0.05 μM ≤ SC150 < 0.1 μM)
COc1cc(S(C)(=O)=O)ccc1NCC#Cc1cc2c(N[C@H]3CC[C@H](N4CCOCC4)CC3)cccc2n1CCF [Compound 176A, 1-(2-fluoroethyl)-2-{3-[(4-methane-sulfonyl-2-methoxy-phenyl)amino]prop-1-yn-1-yl}-N-[(1R,4R)-4-(morpholin-4-yl)cyclo-hexyl]-1H-indol-4-amine]	+ (+ = 0 μM ≤ SC150 < 0.05 μM)
COc1cc(S(C)(=O)=O)ccc1NCC#Cc1cc2c(N[C@H]3CC[C@H](N4CCOCC4)CC3)cccc2n1CC(C)C [Compound 179A, 2-{3-[(4-methane-sulfonyl-2-methoxy-phenyl)amino]prop-1-yn-1-yl}-1-(2-methyl-propyl)-N-[(1R,4R)-4-(morpholin-4-yl)cyclohexyl]-1H-indol-4-amine]	++ (++ = 0.05 μM ≤ SC150 < 0.1 μM)
